# In patent publication US10829473B2, “Modulators of the cystic fibrosis transmembrane conductance regulator protein and methods of use” (AbbVie Overseas S.Á.R.L., priority 2017, dated 2020):
# Like-named read-outs stand apart in the source and are kept apart here. Marks after values point to notes of the source that are not given here.
# Molecular target: T1, F508delCFTR (Homo sapiens, UniProt P13569, DEL508-508)
# T1 construct: expressed in transfected cells; host or cells: CFBE41o- human lung derived epithelial cells (CFBE41o-F508delCFTR-HRP), doxycycline-inducible
# T1 sequence (P13569 with tags, fused parts or gaps DEL508-508): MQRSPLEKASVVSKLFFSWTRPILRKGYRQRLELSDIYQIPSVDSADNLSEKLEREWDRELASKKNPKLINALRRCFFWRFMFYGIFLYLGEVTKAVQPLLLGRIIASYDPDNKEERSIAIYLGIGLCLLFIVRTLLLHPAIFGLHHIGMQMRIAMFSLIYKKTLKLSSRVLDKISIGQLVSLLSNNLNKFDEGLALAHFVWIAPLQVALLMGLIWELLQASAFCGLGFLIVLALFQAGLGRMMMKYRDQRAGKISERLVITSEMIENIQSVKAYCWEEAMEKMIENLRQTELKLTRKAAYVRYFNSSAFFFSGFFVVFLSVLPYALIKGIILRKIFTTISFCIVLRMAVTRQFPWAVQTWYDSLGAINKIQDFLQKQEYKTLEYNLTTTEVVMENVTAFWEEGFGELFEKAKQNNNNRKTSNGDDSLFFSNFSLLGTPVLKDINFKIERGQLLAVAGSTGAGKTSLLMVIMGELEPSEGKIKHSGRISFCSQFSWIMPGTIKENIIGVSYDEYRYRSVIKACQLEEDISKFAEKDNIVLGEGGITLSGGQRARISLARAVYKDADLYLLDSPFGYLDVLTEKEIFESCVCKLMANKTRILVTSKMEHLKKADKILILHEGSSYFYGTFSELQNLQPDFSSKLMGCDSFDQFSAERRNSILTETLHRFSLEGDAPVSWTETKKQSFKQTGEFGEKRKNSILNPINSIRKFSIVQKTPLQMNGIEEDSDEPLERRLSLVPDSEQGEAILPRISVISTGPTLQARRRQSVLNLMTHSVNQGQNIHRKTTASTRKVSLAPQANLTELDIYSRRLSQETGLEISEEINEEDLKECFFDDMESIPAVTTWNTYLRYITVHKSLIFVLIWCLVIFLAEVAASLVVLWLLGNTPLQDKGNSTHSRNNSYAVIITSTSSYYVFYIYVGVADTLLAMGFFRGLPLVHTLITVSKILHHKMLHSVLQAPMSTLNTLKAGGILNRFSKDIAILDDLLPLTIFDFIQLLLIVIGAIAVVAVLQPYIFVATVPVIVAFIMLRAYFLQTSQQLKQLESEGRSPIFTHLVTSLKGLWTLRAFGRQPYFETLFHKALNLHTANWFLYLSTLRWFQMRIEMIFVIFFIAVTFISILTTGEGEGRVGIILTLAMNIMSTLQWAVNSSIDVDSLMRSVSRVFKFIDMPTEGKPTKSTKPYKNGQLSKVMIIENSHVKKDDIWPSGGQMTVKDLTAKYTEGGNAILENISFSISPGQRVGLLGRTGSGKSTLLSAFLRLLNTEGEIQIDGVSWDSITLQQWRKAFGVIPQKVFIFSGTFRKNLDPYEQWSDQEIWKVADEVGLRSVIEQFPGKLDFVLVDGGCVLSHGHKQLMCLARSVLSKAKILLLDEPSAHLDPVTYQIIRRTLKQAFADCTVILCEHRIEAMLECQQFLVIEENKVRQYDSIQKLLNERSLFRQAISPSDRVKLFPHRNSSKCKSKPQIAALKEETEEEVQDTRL
# Assay: Cell Surface Expression-Horse Radish Peroxidase (CSE-HRP) Assay;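 as to EC50 (with co-corrector): co-corrector chromenyl benzoic acid corrector at 2 or 3 µM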;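 as to Maximum % activity (without co-corrector): % of on-plate positive control chromenyl benzoic acid corrector at 2 or 3 µM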
# Type: cell-based
# Details: for Maximum % activity (with co-corrector) / Emax: maximum at any tested concentration; for Emax: read-out: Maximum % activity (without co-corrector)
# Outline: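 Corrector compounds were given as 8-point 3-fold series from 20 or 30 μM, with or without a 2 μM co-corrector, for 18-24 h at 33 °C. Surface HRP was read by luminol luminescence as % of positive control; variable-Hill-slope sigmoidal fitting gave EC50 from triplicate plates.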
# [1] = test compound alone, without co-corrector, read-out: EC50 (without co-corrector)
# [2] = with co-corrector, read-out: EC50 (with co-corrector)
# [3] = test compound with co-corrector
# [4] = test compound with co-corrector, read-out: EC50 (with co-corrector)
# [5] = test compound without co-corrector
# [6] = test compound without co-corrector, read-out: EC50 (without co-corrector)
SMILES,EC50 [1],Maximum % activity (with co-corrector) (with co-corrector),EC50 [2],Emax (without co-corrector),Maximum % activity (with co-corrector) [3],EC50 [4],Emax [5],EC50 [6],EC50 (without co-corrector) [5],EC50 (with co-corrector) [3]
"COc1cnc(OC(C)C)c(C2(C(=O)NS(=O)(=O)c3cccc4ncccc34)CC2)c1 [Example GI-74, 1-{5-methoxy-2-[(propan-2-yl)oxy]pyridin-3-yl}-N-(quinoline-5-sulfonyl)cyclopropane-1-carboxamide]",–,–,–,–,+++ (≥350),< 3 µM,> 150%,3 to 10 µM,–,–
"O=C(NS(=O)(=O)c1ccc2c(c1)CCC2)C1(c2ccc(Cl)cc2Cl)CC1 [Example III-8, 1-(2,4-dichlorophenyl)-N-(2,3-dihydro-1H-indene-5-sulfonyl)cyclopropane-1-carboxamide]",> 10 µM,++ (≥150 and <350),3 to 10 µM,< 50%,–,–,–,–,–,–
"Cc1ccc2c(S(=O)(=O)NC(=O)C3(c4cc(C5CC5)cnc4OC(C)C)CC3)cccc2n1 [Example GI-60, 1-{5-cyclopropyl-2-[(propan-2-yl)oxy]pyridin-3-yl}-N-(2-methylquinoline-5-sulfonyl)cyclopropane-1-carboxamide]",–,–,–,–,+++ (≥350),< 3 µM,> 150%,< 3 µM,–,–
"COCCOc1cnc(OC)cc1C1(C(=O)NS(=O)(=O)c2cccc3nc(C)ccc23)CC1 [GII-46, 1-[2-methoxy-5-(2-methoxyethoxy)pyridin-4-yl]-N-(2-methylquinoline-5-sulfonyl)cyclopropane-1-carboxamide]",–,–,–,–,++ (≥150 and <350),3 to 10 µM,50 to 150%,–,++^a,–
"O=C(NS(=O)(=O)C1CC1)C1(c2ccc(Cl)cc2Cl)CC1 [Example III-28, N-(cyclopropanesulfonyl)-1-(2,4-dichlorophenyl)cyclopropane-1-carboxamide]",> 10 µM,+ (<150),3 to 10 µM,< 50%,–,–,–,–,–,–
Cc1cnc(F)cc1C1(C(=O)NS(=O)(=O)c2cccc3c2CCCN3)CC1 [GIII-7],–,–,–,–,++ (≥150 and <350),–,< 50%,–,++^a,++^a
"COc1ccc(C2(C(=O)NS(=O)(=O)c3cccc4ccccc34)CCC2)cc1OC [Example III-121, 1-(3,4-dimethoxyphenyl)-N-(naphthalene-1-sulfonyl)cyclobutane-1-carboxamide]",> 10 µM,+ (<150),> 10 µM,< 50%,–,–,–,–,–,–
"CC(C)Oc1ccc(S(=O)(=O)NC(=O)C2(c3ccc(Cl)cc3Cl)CC2)cc1 [Example III-20, 1-(2,4-dichlorophenyl)-N-{4-[(propan-2-yl)oxy]benzene-1-sulfonyl}cyclopropane-1-carboxamide]",> 10 µM,+ (<150),> 10 µM,< 50%,–,–,–,–,–,–
"Cc1ccc2c(S(=O)(=O)NC(=O)C3(c4cc(N5CCCC5)cnc4OC(C)C)CC3)cccc2n1 [Example GI-63, N-(2-methylquinoline-5-sulfonyl)-1-{2-[(propan-2-yl)oxy]-5-(pyrrolidin-1-yl)pyridin-3-yl}cyclopropane-1-carboxamide]",–,–,–,–,+++ (≥350),< 3 µM,> 150%,< 3 µM,–,–
"Cc1cnc(C2(C(=O)NS(=O)(=O)c3cccc4[nH]ccc34)CC2)c(C2CC2)c1 [GII-39, 1-(3-cyclopropyl-5-methylpyridin-2-yl)-N-(1H-indole-4-sulfonyl)cyclopropane-1-carboxamide]",–,–,–,–,++ (≥150 and <350),3 to 10 µM,50 to 150%,3 to 10 µM,–,–
"COc1ccc(C2(OC)COC2)cc1C1(C(=O)NS(=O)(=O)c2cccc3ncccc23)CC1 [Example III-128, 1-[2-methoxy-5-(3-methoxyoxetan-3-yl)phenyl]-N-(quinoline-5-sulfonyl)cyclopropane-1-carboxamide]",3 to 10 µM,++ (≥150 and <350),3 to 10 µM,< 50%,–,–,–,–,–,–
"CCc1ccc(OC(C)C)c(C2(C(=O)NS(=O)(=O)c3cccc4ncccc34)CC2)n1 [Example GI-55, 1-{6-ethyl-3-[(propan-2-yl)oxy]pyridin-2-yl}-N-(quinoline-5-sulfonyl)cyclopropane-1-carboxamide]",–,–,–,–,+++ (≥350),< 3 µM,> 150%,3 to 10 µM,–,–
CCc1cnc(N2CCN(C)CC2)c(C2(C(=O)NS(=O)(=O)c3cccc4ncccc34)CC2)c1 [GIII-33],–,–,–,–,+ (<150),> 10 µM,< 50%,> 10 µM,–,–

# Second part, the compound after the results:
EC50 [1],Maximum % activity (with co-corrector) (with co-corrector),EC50 [2],Emax (without co-corrector),Maximum % activity (with co-corrector) [3],EC50 [4],Emax [5],EC50 [6],EC50 (without co-corrector) [5],EC50 (with co-corrector) [3],SMILES
< 3 µM,+++ (≥350),< 3 µM,> 150%,–,–,–,–,–,–,"COc1cc(C2CCC2)cc(OC)c1C1(C(=O)NS(=O)(=O)c2cccc3[nH]ccc23)CC1 [Example I-86, 1-(4-cyclobutyl-2,6-dimethoxyphenyl)-N-(1H-indole-4-sulfonyl)cyclopropane-1-carboxamide]"
3 to 10 µM,+++ (≥350),< 3 µM,> 150%,–,–,–,–,–,–,COc1c(C)cccc1C1(C(=O)NS(=O)(=O)c2cccc3ncccc23)CC1 [II-64]
< 3 µM,+++ (≥350),< 3 µM,> 150%,–,–,–,–,–,–,"CCOc1cccc(OC)c1C1(C(=O)NS(=O)(=O)c2cccc3ncccc23)CC1 [Example I-45, 1-(2-ethoxy-6-methoxyphenyl)-N-(quinoline-5-sulfonyl)cyclopropane-1-carboxamide]"
3 to 10 µM,+++ (≥350),3 to 10 µM,> 150%,–,–,–,–,–,–,"COc1ccc(C#N)cc1C1(C(=O)NS(=O)(=O)c2cccc3c2CCCN3)CC1 [Example III-100, 1-(5-cyano-2-methoxyphenyl)-N-(1,2,3,4-tetrahydroquinoline-5-sulfonyl)cyclopropane-1-carboxamide]"
< 3 µM,+++ (≥350),< 3 µM,> 150%,–,–,–,–,–,–,CCOCC(C)(C)c1ccc(OC)c(C2(C(=O)NS(=O)(=O)c3cccc4nc(C)ccc34)CC2)c1 [II-111]
< 3 µM,+++ (≥350),< 3 µM,> 150%,–,–,–,–,–,–,"COc1ccc(C)cc1C1(C(=O)NS(=O)(=O)c2cccc3ncccc23)CC1 [Example I-44, 1-(2-methoxy-5-methylphenyl)-N-(quinoline-5-sulfonyl)cyclopropane-1-carboxamide]"
3 to 10 µM,+++ (≥350),3 to 10 µM,50 to 150%,–,–,–,–,–,–,COc1ncc(C(F)(F)F)cc1C1(C(=O)NS(=O)(=O)c2cccc3ncc(C)n23)CC1 [II-19]
< 3 µM,+++ (≥350),< 3 µM,> 150%,–,–,–,–,–,–,"COc1ccc(C)c(C)c1C1(C(=O)NS(=O)(=O)c2cccc3ncccc23)CC1 [Example I-47, 1-(6-methoxy-2,3-dimethylphenyl)-N-(quinoline-5-sulfonyl)cyclopropane-1-carboxamide]"
< 3 µM,+++ (≥350),< 3 µM,> 150%,–,–,–,–,–,–,CCOc1ccc(C)cc1C1(C(=O)NS(=O)(=O)c2cccc3nc(NC)ccc23)CC1 [II-84]
3 to 10 µM,++ (≥150 and <350),3 to 10 µM,< 50%,–,–,–,–,–,–,"Cc1ccccc1S(=O)(=O)NC(=O)C1(c2ccc3c(c2)OCO3)CC1 [Example III-86, 1-(2H-1,3-benzodioxol-5-yl)-N-(2-methylbenzene-1-sulfonyl)cyclopropane-1-carboxamide]"
< 3 µM,–,< 3 µM,–,–,–,–,–,–,–,"COc1ccc(C2CC2)cc1C1(C(=O)NS(=O)(=O)c2cccc3nc(C)ccc23)CC1 [Example I-68, 1-(5-cyclopropyl-2-methoxyphenyl)-N-(2-methylquinoline-5-sulfonyl)cyclopropane-1-carboxamide]"
< 3 µM,+++ (≥350),< 3 µM,> 150%,–,–,–,–,–,–,"COc1ccc(C)c(OC)c1C1(C(=O)NS(=O)(=O)c2cccc3[nH]ccc23)CC1 [Example I-42, 1-(2,6-dimethoxy-3-methylphenyl)-N-(1H-indole-4-sulfonyl)cyclopropane-1-carboxamide]"
< 3 µM,+++ (≥350),< 3 µM,> 150%,–,–,–,–,–,–,"CCc1ccc(O[C@H]2CCOC2)c(C2(C(=O)NS(=O)(=O)c3cccc4ncccc34)CC2)c1 [Example I-117, 1-(5-ethyl-2-{[(3S)-oxolan-3-yl]oxy}phenyl)-N-(quinoline-5-sulfonyl)cyclopropane-1-carboxamide]"
< 3 µM,+++ (≥350),< 3 µM,> 150%,–,–,–,–,–,–,"COc1ccc(C(C)(C)C)cc1C1(C(=O)NS(=O)(=O)c2cccc3c2CCCN3)CC1 [Example I-39, 1-(5-tert-butyl-2-methoxyphenyl)-N-(1,2,3,4-tetrahydroquinoline-5-sulfonyl)cyclopropane-1-carboxamide]"
< 3 µM,+++ (≥350),< 3 µM,> 150%,–,–,–,–,–,–,"COc1ccc(C)cc1C1(C(=O)NS(=O)(=O)c2cccc3nc(N)ccc23)CC1 [Example I-79, N-(2-aminoquinoline-5-sulfonyl)-1-(2-methoxy-5-methylphenyl)cyclopropane-1-carboxamide]"
< 3 µM,+++ (≥350),< 3 µM,> 150%,–,–,–,–,–,–,COc1ccc(C2CCC2)c(C2(C(=O)NS(=O)(=O)c3cccc4nc(C)ccc34)CC2)c1 [II-47]
